Test results from patent publication US20230009626A1 (ICHNOS SCIENCES S.A., priority 2018, published 2023).

Target: HPK1 (MAP4K1) (Homo sapiens, UniProt Q92918)
Assay: FRET Assay for HPK1 (MAP4K1): one step binding assay, displacement of labeled tracer
Details: for inhibition at 1 µM: 1 μM compound; for inhibition at 1 µM / inhibition at 10 µM: FRET ratio 665/620, percent of control; for inhibition at 10 µM: 10 μM compound; for IC50: dose response curve, nonlinear regression
Method in brief: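 TR-FRET tracer-displacement binding assay. GST-tagged HPK1 (10 nM) and Eu-anti-GST antibody (4 nM) were pre-incubated with compound on ice for 15 min in 50 mM HEPES pH 7.5, 10 mM MgCl2, 1 mM EGTA, 0.01% Brij-35 (3% DMSO final). Kinase Tracer 222 (20 nM) was then added for 1 h at room temperature. IC50 came from nonlinear regression of percent of control; percent inhibition was also given at 1.0 and 10.0 μM.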

Sequence of HPK1 (MAP4K1) (Q92918 whole entry): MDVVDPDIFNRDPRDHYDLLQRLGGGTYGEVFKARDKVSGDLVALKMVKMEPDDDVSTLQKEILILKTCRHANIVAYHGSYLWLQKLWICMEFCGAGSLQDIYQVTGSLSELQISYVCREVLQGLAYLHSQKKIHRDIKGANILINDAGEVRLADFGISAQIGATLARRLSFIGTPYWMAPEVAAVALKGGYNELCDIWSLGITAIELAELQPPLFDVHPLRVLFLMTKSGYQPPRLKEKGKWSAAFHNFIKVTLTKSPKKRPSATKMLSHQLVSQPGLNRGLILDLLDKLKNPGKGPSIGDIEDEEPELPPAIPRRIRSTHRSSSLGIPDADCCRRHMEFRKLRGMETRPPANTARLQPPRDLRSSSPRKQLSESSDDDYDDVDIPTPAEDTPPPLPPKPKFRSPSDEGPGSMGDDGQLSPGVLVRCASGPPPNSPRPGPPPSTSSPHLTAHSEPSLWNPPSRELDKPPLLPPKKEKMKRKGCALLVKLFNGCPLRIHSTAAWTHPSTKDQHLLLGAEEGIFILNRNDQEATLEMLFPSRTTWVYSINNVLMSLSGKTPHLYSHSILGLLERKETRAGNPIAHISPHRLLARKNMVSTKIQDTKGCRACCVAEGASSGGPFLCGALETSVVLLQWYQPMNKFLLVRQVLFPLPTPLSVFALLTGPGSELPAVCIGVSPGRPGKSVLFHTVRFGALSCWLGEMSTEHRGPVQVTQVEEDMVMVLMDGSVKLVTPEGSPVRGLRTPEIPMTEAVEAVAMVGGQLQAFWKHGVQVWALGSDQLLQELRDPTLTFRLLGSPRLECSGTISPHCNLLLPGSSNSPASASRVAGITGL

| Structure (SMILES) | inhibition at 1 µM [%] | inhibition at 10 µM [%] | IC50 [nM] |
| --- | --- | --- | --- |
| CCn1nc(N/C(C)=C2\C(=O)Nc3cnc(-c4c(C)cccc4F)cc32)cc1C [Example 212, (Z)-3-(1-((1-Ethyl-5-methyl-1H-pyrazol-3-yl)amino)ethylidene)-5-(2-fluoro-6-methylphenyl)-1H-pyrrolo[2,3-c]pyridin-2(3H)-one] | 63.1 | 74.4 | < 50 |
| C/C(Nc1cc(C)n(CC(F)F)n1)=C1/C(=O)Nc2cnc(-c3cc(F)ccc3C)cc21 [Example 213, (Z)-3-(1-((1-(2,2-Difluoroethyl)-5-methyl-1H-pyrazol-3-yl)amino)ethylidene)-5-(5-fluoro-2-methylphenyl)-1H-pyrrolo[2,3-c]pyridin-2(3H)-one] | 60.2 | 69.5 | < 50 |
| C/C(Nc1cc(C)n([C@@H](C)C#N)n1)=C1/C(=O)Nc2cnc(-c3cnccc3C)cc21 [Example 214, (S,Z)-2-(5-Methyl-3-((1-(5-(4-methylpyridin-3-yl)-2-oxo-1H-pyrrolo[2,3-c]pyridin-3(2H)-ylidene)ethyl)amino)-1H-pyrazol-1-yl)propanenitrile] | 69.7 | 67.7 | < 50 |
| C/C(Nc1cc(C)n(C(F)F)n1)=C1/C(=O)Nc2cnc(-c3cc(F)ccc3C)cc21 [Example 215, (Z)-3-(1-((1-(Difluoromethyl)-5-methyl-1H-pyrazol-3-yl)amino)ethylidene)-5-(5-fluoro-2-methylphenyl)-1H-pyrrolo[2,3-c]pyridin-2(3H)-one] | 67.3 |  | < 50 |

More lines, now with the values ahead:

| inhibition at 1 µM [%] | inhibition at 10 µM [%] | IC50 [nM] | Structure (SMILES) |
| --- | --- | --- | --- |
| 72.1 | 68.6 | < 50 | C/C(Nc1cc(C)n(C[C@@H](C)O)n1)=C1/C(=O)Nc2cnc(-c3c(C)cccc3F)cc21 [Example 216, (R,Z)-5-(2-Fluoro-6-methylphenyl)-3-(1-((1-(2-hydroxypropyl)-5-methyl-1H-pyrazol-3-yl)amino)ethylidene)-1H-pyrrolo[2,3-c]pyridin-2(3H)-one] |
| 77.7 |  | < 50 | C/C(Nc1cc2n(n1)CCOC2)=C1/C(=O)Nc2cnc(-c3cc(F)ccc3C)cc21 [Example 218, (Z)-3-(1-((6,7-Dihydro-4H-pyrazolo[5,1-c][1,4]oxazin-2-yl)amino)ethylidene)-5-(5-fluoro-2-methylphenyl)-1H-pyrrolo[2,3-c]pyridin-2(3H)-one] |
